Measurements from ChEMBL document CHEMBL1201862, “PubChem BioAssay data set” (2004).
Blank lines part the entries; values can stand above or below the compound they belong to. Activity calls are given as the source filed them.

How the values were obtained:
[1] = target: Beta-2 adrenergic receptor (Homo sapiens, UniProt P07550); assay: ADRB2 activation measured by internalization – cell-based, FAP fluorogen, flow cytometry, cherry pick 1, dose response (AID 588763); type: functional
[2] = target: Cytochrome P450 2D6 (Homo sapiens, UniProt P10635);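 note: CYP2D6 member of a cytochrome P450 panel assay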
[3] = target: Cytochrome P450 3A4 (Homo sapiens, UniProt P08684);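 note: CYP3A4 tested as one member of a cytochrome P450 panel screen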
[4] = target: Ephrin type-A receptor 4 (Mus musculus, UniProt Q03137); assay: EphA4 ligand-binding antagonists – biochemical, colorimetric, mouse EphA4, primary screen (AID 689); type: functional
[5] = target: Cytochrome P450 2C19 (Homo sapiens, UniProt P33261); assay: Cytochrome panel assay with activity outcomes. Panel member name: p450-cyp2c19 Compounds with AC50 equal or less than 10 uM are considered active; type: functional; conditions: read-out: AC50
[6] = target: T1, Heat shock factor protein 1 (Mus musculus, UniProt P38532); assay: enhancement of HSF1-driven luciferase signal – cell-based, NIH3T3, luminescence, dose retest, confirmation (AID 435004); type: functional;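 note: stress induced by proteasome inhibitor MG132 added 30 min after compound; luciferase reporter driven by HSF1 response element in NIH3T3 cells; actives raise luminescence as potentiators of the MG132 stress response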
T1 sequence (P38532 whole entry): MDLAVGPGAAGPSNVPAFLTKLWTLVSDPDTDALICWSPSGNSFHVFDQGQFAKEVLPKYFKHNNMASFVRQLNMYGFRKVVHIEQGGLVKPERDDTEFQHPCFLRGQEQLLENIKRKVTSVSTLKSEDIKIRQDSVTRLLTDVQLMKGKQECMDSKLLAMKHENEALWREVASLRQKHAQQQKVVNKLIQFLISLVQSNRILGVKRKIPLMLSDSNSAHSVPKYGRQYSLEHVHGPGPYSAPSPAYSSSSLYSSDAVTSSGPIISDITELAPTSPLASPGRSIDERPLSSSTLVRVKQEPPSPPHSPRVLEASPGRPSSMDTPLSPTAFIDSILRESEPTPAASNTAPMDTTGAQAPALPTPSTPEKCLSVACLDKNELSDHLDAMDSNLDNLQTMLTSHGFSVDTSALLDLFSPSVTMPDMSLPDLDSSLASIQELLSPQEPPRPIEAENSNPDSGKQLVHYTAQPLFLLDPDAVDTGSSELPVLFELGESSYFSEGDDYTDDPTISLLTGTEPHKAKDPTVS

[7] = target: Peroxisome proliferator-activated receptor gamma/Nuclear receptor coactivator 2 (Homo sapiens, UniProt P37231); assay: (§1) TR-FRET dose response biochemical High Throughput Screening assay for agonists of the steroid receptor coactivator 2 (SRC-2) recruitment by the peroxisome proliferator-activated receptor gamma (PPAR gamma): non-selective agonists. [Related pubchem assays: 1297, 1032 ]; type: functional
[8] = target: Peroxisome proliferator-activated receptor gamma/Nuclear receptor coactivator 1 (Homo sapiens, UniProt P37231); assay: as §1, with “1 (SRC-1)” for “2 (SRC-2)”, “assays (depositor defined):AID1300, AID1808, AID504735, AID631]” for “assays: 1297, 1032 ]”; type: protein assay
[9] = target: Peroxisome proliferator-activated receptor gamma/Nuclear receptor coactivator 3 (Homo sapiens, UniProt P37231); assay: as §1, with “3 (SRC-3)” for “2 (SRC-2)”, “1301 (Confirmation screen.), 1048 (Primary screen.)]” for “1297, 1032 ]”; type: functional
[10] = test system: Escherichia coli; assay: microbe, parasite or virus in culture
[11] = test system: Escherichia coli; assay: microbe, parasite or virus in culture; remark: listed apart in the source
[12] = target: Trypsin (Sus scrofa, UniProt P00761); assay: trypsin protease activity blockade – biochemical, quenched peptide fluorescence, cherry-pick, selectivity assay for Rce1 protease inhibitor project, dose response (AID 488789)
[13] = target: CAAX prenyl protease 2 (Homo sapiens, UniProt Q9Y256); assay: inhibition of Ras-converting CAAX protease Rce1 – biochemical, yeast membranes, quenched-peptide fluorescence, cherry-pick, dose response (AID 588849)
[14] = test system: HEK293; assay: cells; conditions: Homo sapiens;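 note: cells exposed to compound for 14 hours overnight before viability readout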
[15] = target: Tumor necrosis factor (Homo sapiens, UniProt P01375); assay: analog potency on TNFa NF-kB signaling – cell-based, revised, SAR follow-up (AID 2337); type: functional
[16] = target: Dual specificity tyrosine-phosphorylation-regulated kinase 1A (Rattus norvegicus, UniProt Q63470); type: biochemical, Homo sapiens
[17] = target: T2, Sentrin-specific protease 8 (Homo sapiens, UniProt Q96LD8); assay: inhibition of human SENP8 cleavage activity – biochemical, luminescence, SAR follow-up (AID 504501); type: functional
T2 sequence (Q96LD8 whole entry): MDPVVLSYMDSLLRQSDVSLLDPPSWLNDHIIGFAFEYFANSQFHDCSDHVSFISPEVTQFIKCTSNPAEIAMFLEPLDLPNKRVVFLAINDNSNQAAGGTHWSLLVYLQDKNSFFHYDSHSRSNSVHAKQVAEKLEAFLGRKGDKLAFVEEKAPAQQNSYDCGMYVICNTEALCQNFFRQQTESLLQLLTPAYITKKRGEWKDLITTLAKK

[18] = target: T3, Caspase-3 (Homo sapiens, UniProt P42574); assay: SAR Analysis of small molecule inhibitors of Sentrin-specific proteases (SENPs) using a Caspase-3 Selectivity assay. [Related pubchem assays (depositor defined):AID2540, AID2599, AID434973, AID489001]; type: functional
T3 sequence (P42574 whole entry): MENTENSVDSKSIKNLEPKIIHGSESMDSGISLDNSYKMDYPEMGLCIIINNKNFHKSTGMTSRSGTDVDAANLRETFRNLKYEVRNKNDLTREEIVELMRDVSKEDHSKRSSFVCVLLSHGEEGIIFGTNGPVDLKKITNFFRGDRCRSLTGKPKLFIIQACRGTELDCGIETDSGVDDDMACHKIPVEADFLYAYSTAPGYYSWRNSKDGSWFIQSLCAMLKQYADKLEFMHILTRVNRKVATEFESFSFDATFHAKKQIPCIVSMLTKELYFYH

[19] = target: T4, Sentrin-specific protease 6 (Homo sapiens, UniProt Q9GZR1); assay: SAR Analysis of small molecule inhibitors of Sentrin-specific protease 6 (SENP6) using a Luminescent assay. [Related pubchem assays (depositor defined):AID2582, AID2599]; type: functional
T4 sequence (Q9GZR1 whole entry): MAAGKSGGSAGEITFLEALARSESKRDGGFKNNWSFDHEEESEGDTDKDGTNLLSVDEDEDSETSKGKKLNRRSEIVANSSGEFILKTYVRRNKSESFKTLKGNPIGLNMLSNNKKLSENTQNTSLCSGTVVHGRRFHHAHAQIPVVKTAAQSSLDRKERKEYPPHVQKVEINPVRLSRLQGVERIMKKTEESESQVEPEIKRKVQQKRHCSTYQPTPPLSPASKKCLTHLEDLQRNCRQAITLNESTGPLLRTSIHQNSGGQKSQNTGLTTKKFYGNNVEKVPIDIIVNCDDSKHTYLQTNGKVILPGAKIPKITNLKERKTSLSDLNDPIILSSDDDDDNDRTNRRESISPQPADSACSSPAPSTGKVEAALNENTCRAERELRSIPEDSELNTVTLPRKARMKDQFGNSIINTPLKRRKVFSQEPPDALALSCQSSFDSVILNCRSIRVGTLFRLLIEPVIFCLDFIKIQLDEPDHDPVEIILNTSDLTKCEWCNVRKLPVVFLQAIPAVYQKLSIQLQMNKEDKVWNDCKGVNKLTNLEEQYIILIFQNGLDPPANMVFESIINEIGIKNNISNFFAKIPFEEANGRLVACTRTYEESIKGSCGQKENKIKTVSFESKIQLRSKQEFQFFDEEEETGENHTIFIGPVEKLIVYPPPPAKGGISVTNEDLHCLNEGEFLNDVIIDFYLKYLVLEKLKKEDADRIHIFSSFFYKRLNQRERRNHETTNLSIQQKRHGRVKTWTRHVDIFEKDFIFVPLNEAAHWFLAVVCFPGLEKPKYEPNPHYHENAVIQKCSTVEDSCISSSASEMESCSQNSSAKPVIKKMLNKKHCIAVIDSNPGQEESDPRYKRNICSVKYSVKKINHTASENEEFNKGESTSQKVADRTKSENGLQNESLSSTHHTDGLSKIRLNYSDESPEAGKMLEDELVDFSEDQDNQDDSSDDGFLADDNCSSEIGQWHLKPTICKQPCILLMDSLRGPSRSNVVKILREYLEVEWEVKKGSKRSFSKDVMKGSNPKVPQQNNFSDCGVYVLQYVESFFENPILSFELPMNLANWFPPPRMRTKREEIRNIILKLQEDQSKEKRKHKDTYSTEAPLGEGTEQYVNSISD

[20] = target: T5, Sentrin-specific protease 7 (Homo sapiens, UniProt Q9BQF6); assay: inhibition of human SENP7 cleavage activity – biochemical, luminescence, SAR follow-up (AID 504497); type: functional
T5 sequence (Q9BQF6 whole entry): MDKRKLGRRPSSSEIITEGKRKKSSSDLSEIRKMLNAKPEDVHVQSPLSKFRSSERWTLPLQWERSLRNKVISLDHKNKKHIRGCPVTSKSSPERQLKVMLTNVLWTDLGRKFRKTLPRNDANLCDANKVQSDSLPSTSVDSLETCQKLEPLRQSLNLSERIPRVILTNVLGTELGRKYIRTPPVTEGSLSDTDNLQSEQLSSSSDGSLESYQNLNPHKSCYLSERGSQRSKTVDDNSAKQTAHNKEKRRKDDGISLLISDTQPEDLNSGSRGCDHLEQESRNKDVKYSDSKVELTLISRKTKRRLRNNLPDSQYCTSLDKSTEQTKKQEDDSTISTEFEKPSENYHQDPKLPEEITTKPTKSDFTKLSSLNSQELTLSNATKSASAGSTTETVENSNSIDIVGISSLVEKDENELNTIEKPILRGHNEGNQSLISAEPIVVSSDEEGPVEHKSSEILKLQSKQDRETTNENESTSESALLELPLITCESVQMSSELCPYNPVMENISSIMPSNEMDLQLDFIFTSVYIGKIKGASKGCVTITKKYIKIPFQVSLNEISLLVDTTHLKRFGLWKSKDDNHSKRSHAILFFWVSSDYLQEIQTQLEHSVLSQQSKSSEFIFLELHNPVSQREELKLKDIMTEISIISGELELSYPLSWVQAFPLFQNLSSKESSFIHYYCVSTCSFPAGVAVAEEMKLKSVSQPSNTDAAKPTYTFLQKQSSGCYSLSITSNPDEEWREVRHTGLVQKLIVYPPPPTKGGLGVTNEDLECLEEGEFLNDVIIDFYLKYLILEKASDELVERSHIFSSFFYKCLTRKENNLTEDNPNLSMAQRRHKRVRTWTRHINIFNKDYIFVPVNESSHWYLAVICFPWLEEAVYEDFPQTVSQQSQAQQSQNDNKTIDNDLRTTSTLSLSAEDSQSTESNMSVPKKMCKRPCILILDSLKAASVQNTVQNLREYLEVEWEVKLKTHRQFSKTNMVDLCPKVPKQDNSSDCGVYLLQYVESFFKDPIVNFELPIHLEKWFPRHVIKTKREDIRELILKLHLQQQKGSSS

[21] = target: Exodeoxyribonuclease V (Escherichia coli (strain K12), UniProt P04993+P07648+P08394); assay: RecBCD inhibition via phage-restricted bacterial growth – absorbance, V66 E. coli, mutant T4 phage, counter-screen for AddAB inhibitor project, dose response (AID 492957); type: functional, cell-based, Escherichia coli str. K-12 substr. MG1655
[22] = Counterscreen for AddAB inhibitors: absorbance-based bacterial cell-based high throughput dose response assay for inhibitors of bacterial viability. [Related pubchem assays (depositor defined):AID435030, AID449728, AID449731, AID488942, AID488955, AID488956]; type: functional

Cytochrome P450 2D6, sequence (P10635 whole entry): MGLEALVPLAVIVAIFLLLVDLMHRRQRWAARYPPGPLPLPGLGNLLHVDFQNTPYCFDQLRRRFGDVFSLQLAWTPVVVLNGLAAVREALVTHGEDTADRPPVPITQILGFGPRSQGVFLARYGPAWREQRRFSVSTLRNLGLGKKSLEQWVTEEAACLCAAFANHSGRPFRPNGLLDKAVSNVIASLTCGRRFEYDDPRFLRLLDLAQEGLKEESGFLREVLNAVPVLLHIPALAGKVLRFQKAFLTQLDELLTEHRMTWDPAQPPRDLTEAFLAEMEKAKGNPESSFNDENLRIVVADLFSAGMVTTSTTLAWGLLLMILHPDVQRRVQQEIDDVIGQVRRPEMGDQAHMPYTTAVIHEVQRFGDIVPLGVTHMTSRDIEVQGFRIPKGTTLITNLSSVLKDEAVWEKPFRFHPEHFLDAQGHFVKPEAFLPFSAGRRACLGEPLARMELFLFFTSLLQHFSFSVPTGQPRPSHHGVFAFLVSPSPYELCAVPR
Cytochrome P450 2C19, sequence (P33261 whole entry): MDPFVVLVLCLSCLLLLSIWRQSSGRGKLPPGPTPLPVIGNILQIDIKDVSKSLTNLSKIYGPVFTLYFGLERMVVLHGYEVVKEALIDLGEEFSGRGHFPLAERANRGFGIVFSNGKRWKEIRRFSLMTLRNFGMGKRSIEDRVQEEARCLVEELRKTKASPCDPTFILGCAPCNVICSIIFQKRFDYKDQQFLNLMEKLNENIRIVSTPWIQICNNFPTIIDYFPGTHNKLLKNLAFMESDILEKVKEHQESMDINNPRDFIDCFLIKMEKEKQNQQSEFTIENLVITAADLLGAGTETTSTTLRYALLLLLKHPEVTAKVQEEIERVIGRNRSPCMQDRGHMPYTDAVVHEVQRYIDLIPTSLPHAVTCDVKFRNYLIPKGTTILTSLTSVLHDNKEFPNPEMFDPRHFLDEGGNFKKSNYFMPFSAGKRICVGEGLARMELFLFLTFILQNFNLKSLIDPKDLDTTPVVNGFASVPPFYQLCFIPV
Peroxisome proliferator-activated receptor gamma/Nuclear receptor coactivator 2, sequence (P37231 whole entry): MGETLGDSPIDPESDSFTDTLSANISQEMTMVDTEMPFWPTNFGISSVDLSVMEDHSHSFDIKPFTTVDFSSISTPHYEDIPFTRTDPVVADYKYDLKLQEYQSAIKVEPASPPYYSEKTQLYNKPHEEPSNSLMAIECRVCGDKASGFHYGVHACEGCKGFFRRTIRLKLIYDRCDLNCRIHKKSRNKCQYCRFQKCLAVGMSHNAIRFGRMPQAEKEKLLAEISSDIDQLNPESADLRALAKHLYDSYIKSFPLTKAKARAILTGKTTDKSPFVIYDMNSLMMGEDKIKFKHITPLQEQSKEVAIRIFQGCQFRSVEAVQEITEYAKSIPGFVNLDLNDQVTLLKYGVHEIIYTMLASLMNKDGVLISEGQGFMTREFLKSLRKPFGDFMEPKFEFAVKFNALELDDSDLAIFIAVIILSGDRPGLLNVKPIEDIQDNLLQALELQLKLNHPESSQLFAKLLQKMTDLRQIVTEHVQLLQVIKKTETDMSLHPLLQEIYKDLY
Peroxisome proliferator-activated receptor gamma/Nuclear receptor coactivator 2, sequence (Q15596 whole entry, further chain): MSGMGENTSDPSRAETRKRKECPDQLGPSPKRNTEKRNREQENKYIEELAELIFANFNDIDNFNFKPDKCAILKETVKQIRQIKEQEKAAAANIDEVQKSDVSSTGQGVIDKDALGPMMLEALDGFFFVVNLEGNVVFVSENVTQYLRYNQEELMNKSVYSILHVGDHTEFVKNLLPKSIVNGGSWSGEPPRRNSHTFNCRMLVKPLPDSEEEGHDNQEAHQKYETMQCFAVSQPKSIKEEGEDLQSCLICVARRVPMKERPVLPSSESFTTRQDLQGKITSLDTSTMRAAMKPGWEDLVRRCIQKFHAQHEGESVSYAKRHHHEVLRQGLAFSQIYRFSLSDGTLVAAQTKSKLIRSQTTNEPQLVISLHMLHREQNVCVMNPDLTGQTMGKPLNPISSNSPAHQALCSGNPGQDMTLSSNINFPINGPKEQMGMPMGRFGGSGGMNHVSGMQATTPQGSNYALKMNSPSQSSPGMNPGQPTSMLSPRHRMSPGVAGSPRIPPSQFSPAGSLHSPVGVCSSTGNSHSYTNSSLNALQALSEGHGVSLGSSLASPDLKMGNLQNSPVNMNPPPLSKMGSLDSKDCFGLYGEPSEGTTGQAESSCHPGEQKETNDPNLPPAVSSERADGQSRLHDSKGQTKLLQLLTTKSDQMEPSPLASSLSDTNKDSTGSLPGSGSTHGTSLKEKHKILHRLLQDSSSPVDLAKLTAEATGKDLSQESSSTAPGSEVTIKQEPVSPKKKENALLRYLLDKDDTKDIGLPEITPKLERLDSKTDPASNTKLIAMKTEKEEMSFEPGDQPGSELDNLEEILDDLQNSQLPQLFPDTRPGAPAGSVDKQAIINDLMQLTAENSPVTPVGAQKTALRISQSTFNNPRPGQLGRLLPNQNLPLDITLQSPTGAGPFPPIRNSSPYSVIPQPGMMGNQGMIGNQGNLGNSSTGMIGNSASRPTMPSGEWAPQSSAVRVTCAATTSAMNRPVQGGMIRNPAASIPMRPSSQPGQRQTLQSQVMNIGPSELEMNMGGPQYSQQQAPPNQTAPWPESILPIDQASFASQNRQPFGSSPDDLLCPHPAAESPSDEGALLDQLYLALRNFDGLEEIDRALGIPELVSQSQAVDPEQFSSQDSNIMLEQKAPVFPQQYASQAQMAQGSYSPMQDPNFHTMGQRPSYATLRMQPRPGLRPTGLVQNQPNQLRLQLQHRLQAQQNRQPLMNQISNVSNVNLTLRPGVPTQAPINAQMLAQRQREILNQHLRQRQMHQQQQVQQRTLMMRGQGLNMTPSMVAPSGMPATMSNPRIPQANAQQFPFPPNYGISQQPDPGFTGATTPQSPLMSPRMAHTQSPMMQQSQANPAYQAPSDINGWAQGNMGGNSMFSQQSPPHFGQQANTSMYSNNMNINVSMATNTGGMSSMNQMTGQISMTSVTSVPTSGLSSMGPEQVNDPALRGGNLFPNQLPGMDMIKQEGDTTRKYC
Peroxisome proliferator-activated receptor gamma/Nuclear receptor coactivator 1, sequence (P37231 whole entry): as the sequence (P37231 whole entry) above
Peroxisome proliferator-activated receptor gamma/Nuclear receptor coactivator 1, sequence (Q15788 whole entry, further chain): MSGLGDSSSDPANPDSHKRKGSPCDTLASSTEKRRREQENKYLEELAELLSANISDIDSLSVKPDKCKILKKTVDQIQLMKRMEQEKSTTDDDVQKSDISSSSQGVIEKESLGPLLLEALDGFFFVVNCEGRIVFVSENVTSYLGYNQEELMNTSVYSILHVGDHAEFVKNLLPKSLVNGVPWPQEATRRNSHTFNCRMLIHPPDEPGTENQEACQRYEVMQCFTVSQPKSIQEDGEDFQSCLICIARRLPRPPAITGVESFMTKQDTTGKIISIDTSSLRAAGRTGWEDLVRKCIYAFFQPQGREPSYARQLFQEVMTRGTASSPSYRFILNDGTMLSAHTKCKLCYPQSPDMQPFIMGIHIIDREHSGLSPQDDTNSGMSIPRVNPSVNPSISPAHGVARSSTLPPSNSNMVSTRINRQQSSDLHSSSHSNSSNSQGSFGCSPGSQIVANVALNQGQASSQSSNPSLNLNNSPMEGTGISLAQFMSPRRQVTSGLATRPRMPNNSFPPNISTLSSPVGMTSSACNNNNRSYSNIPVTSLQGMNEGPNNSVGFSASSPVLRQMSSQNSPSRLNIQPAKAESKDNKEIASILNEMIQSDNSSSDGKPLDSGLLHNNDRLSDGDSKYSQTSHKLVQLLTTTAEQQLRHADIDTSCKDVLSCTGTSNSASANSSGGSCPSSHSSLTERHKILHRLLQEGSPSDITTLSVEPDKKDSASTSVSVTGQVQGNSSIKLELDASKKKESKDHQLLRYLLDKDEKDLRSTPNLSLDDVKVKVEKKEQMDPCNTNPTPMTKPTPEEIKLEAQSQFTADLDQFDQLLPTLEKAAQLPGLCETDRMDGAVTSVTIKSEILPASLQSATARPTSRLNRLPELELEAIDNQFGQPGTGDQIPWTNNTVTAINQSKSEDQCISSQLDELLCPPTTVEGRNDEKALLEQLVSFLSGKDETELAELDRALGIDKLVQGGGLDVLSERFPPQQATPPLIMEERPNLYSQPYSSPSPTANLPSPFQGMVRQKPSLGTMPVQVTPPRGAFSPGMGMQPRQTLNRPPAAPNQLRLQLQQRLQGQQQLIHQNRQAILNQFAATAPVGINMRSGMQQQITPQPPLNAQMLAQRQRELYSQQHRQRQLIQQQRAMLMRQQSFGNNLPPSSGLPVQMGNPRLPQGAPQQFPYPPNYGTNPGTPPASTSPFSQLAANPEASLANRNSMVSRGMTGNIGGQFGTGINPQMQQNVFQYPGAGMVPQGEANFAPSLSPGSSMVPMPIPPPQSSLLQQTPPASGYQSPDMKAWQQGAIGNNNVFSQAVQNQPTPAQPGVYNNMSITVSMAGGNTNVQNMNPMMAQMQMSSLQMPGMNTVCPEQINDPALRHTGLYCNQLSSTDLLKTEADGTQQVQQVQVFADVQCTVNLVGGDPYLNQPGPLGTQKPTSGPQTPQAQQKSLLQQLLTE

SMILES: CCN(CC)CCCNC(=O)CSc1c2c(nc3cc(Cl)ccc13)CCCC2
EC50 [6]: 17.3 µM (active) | EC50 [7]: > 79.4 µM (not active) | EC50 [8]: > 79.4 µM (inactive) | EC50 [9]: > 79.4 µM (not active)

SMILES: CC1(C)CC(CCNS(=O)(=O)c2ccccc2)(c2ccccc2)CCO1 (centres undefined)
AC50 [10]: 251 µM (active) | AC50 [11]: 52.9 µM (active)

SMILES: C=CCN1C=C2C(=O)C(C)(OC(=O)c3ccc(OC)cc3)C(=O)C(c3ccco3)=C2C=C1CCCC (centres undefined)
AC50 [11]: 22.3 µM (active)

SMILES: Cc1c(Nc2ncnc3c2cnn3-c2ccccc2)c(=O)n(-c2ccccc2)n1C
AC50 [10]: 51.5 µM (active)

SMILES: COC(=O)c1c(-c2ccc(OC)cc2)oc2ccc(-c3ccc(OC)nc3)cc12
AC50 [12]: 5.18 µM (active) | AC50 [13]: 1.15 µM (active)

SMILES: O=C(Nc1ccc(F)cc1)c1ccc(CN2CCCCC2)cc1
IC50 [14]: > 20 µM (inactive) | IC50 [15]: > 20 µM (inactive)

SMILES: O=C1NC(=S)SC1=Cc1ccc(F)cc1
AC50 [16]: 0.622 µM (active)

SMILES: O=[N+]([O-])c1cc(/C=N/Nc2cc(N3CCOCC3)nc(N3CCOCC3)n2)cc2c1OCO2
IC50 [17]: > 99 µM (inactive) | IC50 [18]: > 99 µM (inactive) | IC50 [19]: > 99 µM (inactive) | IC50 [20]: > 99 µM (inactive)

SMILES: CCn1cc(C(=O)O)c(=O)c2cnc(N3CCN(C(=S)Nc4ccccc4C(F)(F)F)CC3)nc21
IC50 [21]: > 39.5 µM (inactive) | IC50 [22]: 3.33 µM (active)

Continued, in another order:

EC50 [1]: 2.2 µM (active)
SMILES: NC(=O)CC(NC(=O)Cc1ccc(Cl)cc1)c1ccc(NCCCN2CCCC2=O)c([N+](=O)[O-])c1 (centres undefined)

AC50 [2]: inconclusive | AC50 [3]: 22.4 µM (inconclusive) | IC50 [4]: > 100 µM (not active) | AC50 [5]: 28.2 µM (inconclusive)
SMILES: COc1cc(NC(=O)c2ccc(COCC(F)(F)F)cc2)cc(OC)c1OC

AC50 [2]: inconclusive
SMILES: Cc1ccc(SCc2noc(C(=O)NCC3CCCO3)c2C(=O)O)cc1C (centres undefined)

IC50 [18]: 1.98 µM (active) | IC50 [19]: 1.22 µM (active) | IC50 [20]: 1.53 µM (active)
SMILES: CC(C)OC(=O)c1c(-c2ccc(Br)cc2)csc1NC(=O)C1CCC1
IC50 [17]: 1.58 µM (active)
